Patent publication US12391737B2, “Soluble NPY2 receptor agonists” (Boehringer Ingelheim International GmbH, priority 2020, dated 2025)
*1 amine or outer side, *2 acyl side, *3 side chain or, on linkers, in order; H or OH if unused. Where a SMILES comes first, the peptide text is derived from it. Side-chain parts run from the residue outwards. The star is where a group is joined. C18 diacid = O=C(O)CCCCCCCCCCCCCCCCC(=O)*; γGlu = O=C(O)[C@H](CCC(=O)[*:2])N[*:1]; Isovaleryl = CC(C)CC(=O)*; Ahx = NCCCCCC(=O)O

Key:
[1] = Solubility determination; settings: for Sol6: pH 6; for Sol7: pH 7
How it was run: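 Sample: TFA-salt peptide at 10 mg/ml target in 0.1 M Na diphosphate, pH 6.4 or 7.0, shaken 2 h RT, filtered, diluted to 1 mg/ml.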

[2] = biological target: T1, human NPY5 receptor (hY5R) (Homo sapiens, UniProt Q15761); assay: HTRF cAMP Gi assay, hY5R
T1 sequence (Q15761 1-445): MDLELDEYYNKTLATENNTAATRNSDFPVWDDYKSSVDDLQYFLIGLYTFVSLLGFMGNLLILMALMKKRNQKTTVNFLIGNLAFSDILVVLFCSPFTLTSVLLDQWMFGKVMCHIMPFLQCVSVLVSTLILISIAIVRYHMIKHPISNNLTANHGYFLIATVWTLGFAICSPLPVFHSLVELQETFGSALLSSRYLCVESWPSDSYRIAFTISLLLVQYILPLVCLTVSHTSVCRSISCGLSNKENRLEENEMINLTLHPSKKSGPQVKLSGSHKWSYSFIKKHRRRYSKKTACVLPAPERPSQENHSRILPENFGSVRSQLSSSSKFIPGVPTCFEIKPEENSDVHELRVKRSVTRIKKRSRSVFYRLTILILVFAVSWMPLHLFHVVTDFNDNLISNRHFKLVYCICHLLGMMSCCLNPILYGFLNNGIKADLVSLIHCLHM
Protocol: Briefly, the production of intracellular cAMP will generate a competition between unlabeled cAMP and exogenously added d2-cAMP for anti-cAMP antibodies conjugated to cryptate. CHO-K1 cells stably expressing the human NPY1, NPY2, NPY4 and NPY5 receptors were used with the cells brought to life from a frozen stock immediately before assay performance. 2000 cells per well were applied for all four NPY receptor subtype assays. A 384-well format was used applying a total volume of 20 μl using 5 μl cells, 2.5 μl peptide agonist, 2.5 μl forskolin and 5 μl of each of the fluorophores. […] Concentration-response evaluation of compounds was performed with 11 concentrations of agonist peptides (covering 3 decades). EC50 values were calculated by nonlinear regression using sigmoid concentration-response with variable slope.

[3] = biological target: T2, Human Neuropeptide Y2 Receptor (Homo sapiens, UniProt P49146); assay: Radioligand binding competition assay (RLB); settings: Table 3, 125I-PYY(1-36) competition; read-out: Ki
T2 construct: purchased CHEMICON HTS066M
T2 sequence (P49146 1-381): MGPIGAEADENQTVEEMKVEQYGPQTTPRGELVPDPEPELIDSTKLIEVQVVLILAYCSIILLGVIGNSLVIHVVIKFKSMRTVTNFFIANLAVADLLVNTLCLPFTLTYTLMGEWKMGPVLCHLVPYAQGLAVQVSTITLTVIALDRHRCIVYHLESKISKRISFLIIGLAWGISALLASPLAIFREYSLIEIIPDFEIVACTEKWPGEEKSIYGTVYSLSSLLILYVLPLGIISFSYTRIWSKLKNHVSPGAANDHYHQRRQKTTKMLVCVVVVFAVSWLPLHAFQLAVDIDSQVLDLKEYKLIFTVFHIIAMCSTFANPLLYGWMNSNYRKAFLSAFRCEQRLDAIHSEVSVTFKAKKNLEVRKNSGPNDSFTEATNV
How it was run: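 Peptides were serially diluted from 1 mM DMSO stocks and competed for radioligand binding to receptor membranes (0.5 μg/well) over 2 h at room temperature, pH 7.4 HEPES buffer. Bound radioactivity on filters was counted by scintillation, and IC50 was derived by nonlinear regression.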

Structure (SMILES) | Sol6 [1] [mg/mL] | Sol7 [1] [mg/mL] | EC50 [2] [µM] | Ki [3] [nM]
CC(C)CC(=O)N[C@@H](C)C(=O)N1CCC[C@H]1C(=O)N[C@@H](CCC(=O)O)C(=O)N[C@@H](CCCCNC(=O)CCCCCNC(=O)CC[C@H](NC(=O)CCCCCCCCCCCCCCCCC(=O)O)C(=O)O)C(=O)N1CCC[C@H]1C(=O)N[C@@H](CCC(=O)O)C(=O)N[C@@H](CCC(=O)O)C(=O)N[C@@H](CC(=O)O)C(=O)N[C@@H](C)C(=O)N[C@@H](CCC(=O)O)C(=O)N1CCC[C@H]1C(=O)N[C@@H](CCC(=O)O)C(=O)N[C@@H](CCC(=O)O)C(=O)N[C@@H](CC(C)C)C(=O)N[C@@H](CCC(N)=O)C(=O)N[C@@H](CCCNC(=N)N)C(=O)N[C@@H](Cc1ccc(O)cc1)C(=O)N[C@@H](Cc1ccc(O)cc1)C(=O)N[C@H](C(=O)N[C@@H](CO)C(=O)N[C@@H](CC(C)C)C(=O)N[C@@H](CCCNC(=N)N)C(=O)N[C@@H](Cc1c[nH]cn1)C(=O)N[C@@H](Cc1ccc(O)cc1)C(=O)N[C@@H](Cc1ccc(O)cc1)C(=O)N[C@@H](Cc1c[nH]cn1)C(=O)N[C@@H](Cc1c[nH]c2ccccc12)C(=O)N[C@@H](CC(C)C)C(=O)N[C@H](C(=O)N[C@@H](CCCNC(=N)N)C(=O)N[C@@H](CCC(N)=O)C(=O)N[C@@H](CCCNC(=N)N)C(=O)N[C@@H](Cc1ccc(O)cc1)C(N)=O)[C@@H](C)O)[C@@H](C)O [Compound 91, N{alpha-4}-(3-methylbutanoyl)-N{epsilon-7}-(6-[(4S)-4-carboxy-4-(17-carboxyheptadecanamido)butanamido]hexanoyl)-[4A,7K,9E,13E,18Q,22T,28Y,29H,30W,31L]-hPYY(4-36)] (Isovaleryl-APEK([Ahx-γGlu-C18 diacid])PEEDAEPEELQRYYTSLRHYYHWLTRQRY-NH2) | 8.9 | 9.4 | ≥ 5 | 4.64
CC(C)CC(=O)N[C@@H](C)C(=O)N1CCC[C@H]1C(=O)N[C@@H](CCC(=O)O)C(=O)N[C@@H](CCCCNC(=O)CCCCCNC(=O)CC[C@H](NC(=O)CCCCCCCCCCCCCCCCC(=O)O)C(=O)O)C(=O)N1CCC[C@H]1C(=O)N[C@@H](CCC(=O)O)C(=O)N[C@@H](CCC(=O)O)C(=O)N[C@@H](CC(=O)O)C(=O)N[C@@H](C)C(=O)N[C@@H](CO)C(=O)N1CCC[C@H]1C(=O)N[C@@H](CCC(=O)O)C(=O)N[C@@H](CCC(=O)O)C(=O)N[C@@H](CC(C)C)C(=O)N[C@@H](CCC(N)=O)C(=O)N[C@@H](CCCNC(=N)N)C(=O)N[C@@H](Cc1ccc(O)cc1)C(=O)N[C@@H](Cc1ccc(O)cc1)C(=O)N[C@H](C(=O)N[C@@H](CO)C(=O)N[C@@H](CC(C)C)C(=O)N[C@@H](CCCNC(=N)N)C(=O)N[C@@H](Cc1c[nH]cn1)C(=O)N[C@@H](Cc1ccc(O)cc1)C(=O)N[C@@H](Cc1ccc(O)cc1)C(=O)N[C@@H](CC(N)=O)C(=O)N[C@@H](Cc1c[nH]c2ccccc12)C(=O)N[C@@H](CC(C)C)C(=O)N[C@H](C(=O)N[C@@H](CCCNC(=N)N)C(=O)N[C@@H](CCC(N)=O)C(=O)N[C@@H](CCCNC(=N)N)C(=O)N[C@@H](Cc1ccc(O)cc1)C(N)=O)[C@@H](C)O)C(C)C [Compound 79, N{alpha-4}-(3-methylbutanoyl)-N{epsilon-7}-(6-[(4S)-4-carboxy-4-(17-carboxyheptadecanamido)butanamido]hexanoyl)-[4A,7K,9E,18Q,22V,28Y,30W,31L]-hPYY(4-36)] | 10.0 | 10.0 | > 5 | 1.54
CC(C)CC(=O)N[C@@H](C)C(=O)N1CCC[C@H]1C(=O)N[C@@H](CCC(=O)O)C(=O)N[C@@H](CCCCNC(=O)CCCCCNC(=O)CC[C@H](NC(=O)CCCCCCCCCCCCCCCCC(=O)O)C(=O)O)C(=O)N1CCC[C@H]1C(=O)N[C@@H](CCC(=O)O)C(=O)N[C@@H](CCC(=O)O)C(=O)N[C@@H](CC(=O)O)C(=O)N[C@@H](C)C(=O)N[C@@H](CO)C(=O)N1CCC[C@H]1C(=O)N[C@@H](CCC(=O)O)C(=O)N[C@@H](CCC(=O)O)C(=O)N[C@@H](CC(C)C)C(=O)N[C@@H](CCC(N)=O)C(=O)N[C@@H](CCC(N)=O)C(=O)N[C@@H](Cc1ccc(O)cc1)C(=O)N[C@@H](Cc1ccc(O)cc1)C(=O)N[C@H](C(=O)N[C@@H](CO)C(=O)N[C@@H](CC(C)C)C(=O)N[C@@H](CCCNC(=N)N)C(=O)N[C@@H](Cc1c[nH]cn1)C(=O)N[C@@H](Cc1ccc(O)cc1)C(=O)N[C@@H](Cc1ccc(O)cc1)C(=O)N[C@@H](Cc1c[nH]cn1)C(=O)N[C@@H](Cc1c[nH]c2ccccc12)C(=O)N[C@@H](CC(C)C)C(=O)N[C@H](C(=O)N[C@@H](CCCNC(=N)N)C(=O)N[C@@H](CCC(N)=O)C(=O)N[C@@H](CCCNC(=N)N)C(=O)N[C@@H](Cc1ccc(O)cc1)C(N)=O)[C@@H](C)O)C(C)C [Compound 12, N{alpha-4}-(3-methylbutanoyl)-N{epsilon-7}-(6-[(4S)-4-carboxy-4-(17-carboxyheptadecanamido)butanamido]hexanoyl)[4A,7K,9E,18Q,19Q,22V,28Y,29H,30W,31L]-hPYY(4-36)] (Isovaleryl-APEK([Ahx-γGlu-C18 diacid])PEEDASPEELQQYYVSLRHYYHWLTRQRY-NH2) | 9.4 | 9.8 | > 5 | 4.16
CC[C@H](C)[C@H](NC(=O)[C@H](CCC(=O)O)NC(=O)[C@H](CCC(=O)O)NC(=O)[C@@H]1CCCN1C(=O)[C@H](CO)NC(=O)[C@H](C)NC(=O)[C@H](CC(=O)O)NC(=O)[C@H](CCC(=O)O)NC(=O)[C@@H]1CCCN1C(=O)[C@@H]1CCCN1C(=O)[C@H](CCCCNC(=O)CCCCCNC(=O)CC[C@H](NC(=O)CCCCCCCCCCCCCCCCC(=O)O)C(=O)O)NC(=O)[C@H](CCC(=O)O)NC(=O)[C@@H]1CCCN1C(=O)[C@H](C)NC(=O)CC(C)C)C(=O)N[C@@H](CCC(N)=O)C(=O)N[C@@H](CCCNC(=N)N)C(=O)N[C@@H](Cc1ccc(O)cc1)C(=O)N[C@@H](Cc1ccc(O)cc1)C(=O)N[C@H](C(=O)N[C@@H](CO)C(=O)N[C@@H](CC(C)C)C(=O)N[C@@H](CCCNC(=N)N)C(=O)N[C@@H](Cc1c[nH]cn1)C(=O)N[C@@H](Cc1ccc(O)cc1)C(=O)N[C@@H](Cc1ccc(O)cc1)C(=O)N[C@@H](CC(N)=O)C(=O)N[C@@H](Cc1c[nH]c2ccccc12)C(=O)N[C@@H](CC(C)C)C(=O)N[C@H](C(=O)N[C@@H](CCCNC(=N)N)C(=O)N[C@@H](CCC(N)=O)C(=O)N[C@@H](CCCNC(=N)N)C(=O)N[C@@H](Cc1ccc(O)cc1)C(N)=O)[C@@H](C)O)C(C)C [Compound 172, N{alpha-4}-(3-methylbutanoyl)-N{epsilon-7}-(6-[(4S)-4-carboxy-4-(17-carboxyheptadecanamido)butanamido]hexanoyl)-[4A,7K,9P,17I,18Q,22V,28Y,30W,31L]-hPYY(4-36)] | 10.0 | >10.0 | > 5 | 0.81
